Molecules are shown by their SMILES.

A word on the GI50: it is the concentration that inhibits growth by half. As usually defined, the EC50 is the concentration giving half of the maximal effect.

Assay type in all cases: cell-based
Assay [1] concerns human leukemia cell line K562. Nature of the assay: Inhibition of cell proliferation (GI50) in K562 cells. The settings on record: 48 h incubation.
For assay [2], the system named is human lymphoma cell line Raji. The assay is described as follows: Inhibition of cell proliferation (GI50) in Raji cells. The settings on record: 48 h incubation.
The subject of assay [3] is human cancer cell line H1299. The assay is described as follows: Caspase cascade activation in H1299 cells. The settings on record: NCI-H1299, 48 h incubation, read-out: caspase potency EC50 H1299. The method, then: Human breast cancer cell lines T-47D, human hepatocellular carcinoma cell line SNU398, human colon carcinoma cell line HCT116, human cancer cell line H11299, human Burkitt's lymphoma cell line Namalwa, human lymphoma cell line Raji, and human B cell lymphoblastoid cell line Ramos were grown according to media component mixtures designated by American Type Culture Collection+10% FCS (Invitrogen Corporation), in a 5% CO2-95% humidity incubator at 37° C. T-47D and H1299 cells were maintained at a cell density between 50 and 80% confluency at a cell density of 0.1 to 0.6×10^6 cells/mL. Cells were harvested at 600×g and resuspended at 0.65×10^6 cells/mL into appropriate media+10% FCS. An aliquot of 22.5 μL of cells was added to a well of a 384-well microtiter plate containing 2.5 μL of a 10% DMSO in RPMI-1640 media solution containing 0.16 to 100 μM of 6-(3,4-dimethoxyphenyl)-3-(2-methoxyphenyl)-[1,2,4]triazolo[3,4-b][1,3,4]thiadiazole or other test compound (0.016 to 10 μM final). An aliquot of 22.5 μL of cells was added to a well of a 384-well microtiter plate containing 2.5 μL of a 10% DMSO in RPMI-1640 media solution without test compound as the control sample. The samples were mixed by agitation and then incubated at 37° C. for 48 h in a 5% CO2-95% humidity incubator. After incubation, the samples were removed from the incubator and 25 μL of a solution containing 14 μM of N-(Ac-DEVD)-N′-ethoxycarbonyl-R110 (SEQ ID No.:1) fluorogenic substrate (Cytovia, Inc.; WO99/18856), 20% sucrose (Sigma), 20 mM DTT (Sigma), 200 mM NaCl (Sigma), 40 mM Na PIPES buffer pH 7.2 (Sigma), and 500 μg/mL lysolecithin (Calbiochem) was added. The samples were mixed by agitation and incubated at room temperature. Using a fluorescent plate reader (Model SPECTRAfluor Plus, Tecan), an initial reading (T=0) was made approximately 1-2 min after addition of the substrate solution, employing excitation at 485 nm and emission at 530 nm, to determine the background fluorescence of the control sample. After the 3 h incubation, the samples were read for fluorescence as above (T=3 h).
The Relative Fluorescence Unit values (RFU) were used to calculate the sample readings as follows: RFU(T=3h)−Control RFU(T=0)=Net RFU(T=3h)
The activity of caspase cascade activation was determined by the ratio of the net RFU value for 6-(3,4-dimethoxyphenyl)-3-(2-methoxyphenyl)-[1,2,4]triazolo[3,4-b][1,3,4]thiadiazole (Example I) or other test compound to that of control samples. The EC50 (nM) was determined by a sigmoidal dose-response calculation (Prism 3.0, GraphPad Software Inc.).

Assay [4] has as its system human Burkitt's lymphoma cell line Namalwa. The assay is described as follows: Caspase cascade activation in Namalwa cells. Particulars: Burkitts lymphoma cell, 48 h incubation, read-out: caspase potency EC50 Namalwa. An outline of the steps:
(§1)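 EC50 reflects the ratio of net RFU in compound-treated wells to untreated control, where net RFU is the 3 h reading minus the T=0 control background. Cells were incubated 48 h with 0.016–10 μM compound before Ac-DEVD-R110 addition.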

Assay [5] deals with Human breast cancer cell lines T-47D. The assay is described as follows: Inhibition of cell proliferation (GI50, CellTiter-Glo) in T-47D cells. The settings on record: T47D cells, 48 h incubation. The method, then: (§2) Human breast cancer cell lines T-47D, MX1 and MDAMB435, human colon carcinoma cell line HCT116, human leukemia cell line K562, human lymphoma cell line Raji, human B cell lymphoblastoid cell line Ramos, and human Burkitt's lymphoma cell line Namalwa were grown and harvested as in Example 14. An aliquot of […] of cells (4.4×10^4 cells/mL) was added to a well of a 96-well microtiter plate containing 5 μL of a 10% DMSO in RPMI-1640 media solution containing 10 nM to 100 μM of 6-(3,4-dimethoxyphenyl)-3-(2-methoxyphenyl)-[1,2,4]triazolo[3,4-b][1,3,4]thiadiazole (1 nM to 10 μM final). An aliquot of 45 μL of cells was added to a well of a 96-well microtiter plate containing 5 μL of a 10% DMSO in RPMI-1640 media solution without compound as the control sample for maximal cell proliferation (LMax). The samples were mixed by agitation and then incubated at 37° C. for 48 h in a 5% CO2-95% humidity incubator. After incubation, the samples were removed from the incubator and 25 μL of CellTiter-Glo™ reagent (Promega) was added. The samples were mixed by agitation and incubated at room temperature for 10-15 min. Plates were then read using a luminescent plate reader (Model SPECTRAfluor Plus, Tecan) to give Ltest values.
(§3) The samples were mixed by agitation and then incubated at 37° C. for 0.5 h in a 5% CO2-95% humidity incubator. After incubation, the samples were removed from the incubator and 25 μL of CellTiter-Glo™ reagent (Promega) was added. The samples were mixed by agitation and incubated at […] 10-15 min at room temperature in a 5% CO2-95% humidity incubator. Fluorescence was read as above, (LStart) defining luminescence for initial cell number used as baseline in GI50 determinations.
(§4) GI50 (dose for 50% inhibition of cell proliferation) is the concentration where [(LTest−LStart)/(LMax−LStart)]=0.5.
(Cellular ATP, detected with luciferase, serves as a proxy for viable cell number.)

Assay [6] deals with human lymphoma cell line Raji. Nature of the assay: Caspase cascade activation in Raji cells. Particulars: RAJ1 cells, 48 h incubation, read-out: caspase potency EC50 RAJ1. An outline of the steps: as §1
For assay [7], the system named is Human breast cancer cell lines MDAMB435. The assay is described as follows: Inhibition of cell proliferation (GI50) in MDAMB435 cells. The settings on record: MDA MB 435 cells, 48 h incubation. The method, then: as §2, §3, §4
Assay [8] relates to human Burkitt's lymphoma cell line Namalwa. The assay is described as follows: Inhibition of cell proliferation (GI50) in Namalwa cells. Particulars: Burkitts lymphoma cell, 48 h incubation.
The test system of assay [9] is human colon carcinoma cell line HCT116. The assay is described as follows: Inhibition of cell proliferation (GI50) in HCT116 cells. The settings on record: HCT 116 cells, 48 h incubation.
In assay [10] the test system is Human breast cancer cell lines T-47D. Nature of the assay: Caspase cascade activation (Ac-DEVD-R110 fluorogenic substrate) in T-47D cells. The settings on record: T47D cells, 48 h incubation, read-out: caspase potency EC50 T47D. An outline of the steps: as §1
The test system of assay [11] is human B cell lymphoblastoid cell line Ramos. The assay is described as follows: Inhibition of cell proliferation (GI50) in Ramos cells. The settings on record: 48 h incubation.
Assay [12] concerns Human breast cancer cell lines MX1. The assay is described as follows: Inhibition of cell proliferation (GI50) in MX1 cells. Particulars: 48 h incubation. The procedure:
as §2, §3, §4

Assay [13] relates to human colon carcinoma cell line HCT116. The assay is described as follows: Caspase cascade activation in HCT116 cells. The settings on record: HCT-116, 48 h incubation, read-out: caspase potency EC50 HCT116. The procedure, abridged:
as §1

In assay [14] the test system is human hepatocellular carcinoma cell line SNU398. The assay is described as follows: Caspase cascade activation in SNU398 cells. The settings on record: SNU-398, 48 h incubation, read-out: caspase potency EC50 SNU398. The procedure, abridged: as §1
The subject of assay [15] is human B cell lymphoblastoid cell line Ramos. Nature of the assay: Caspase cascade activation in Ramos cells. Particulars: 48 h incubation, read-out: caspase potency EC50 RAMOS. The procedure, abridged:
as §1

Consider `COc1ccccc1-c1nnc2sc(-c3ccc(Br)cc3)nn12` [H, 6-(4-Bromophenyl)-3-(2-methoxyphenyl)-[1,2,4]triazolo[3,4-b][1,3,4]thiadiazole], for which the GI50 stood at 0.626 µM in [1]; 0.7 µM in assay [2]; 0.217 µM in assay [5]; 0.048 µM in [7]; 0.52 µM in assay [8]; 0.844 µM in [9]. Moreover, the values for the 50% growth inhibitory concentration (GI50) in assay [11] and in assay [12] were 0.12 µM and 0.4 µM, respectively. Moreover, the EC50 in assay [3] amounted to 0.733 µM; in assay [4] it was 0.344 µM; in [6], 0.501 µM; in assay [10], 0.563 µM; in assay [13], 0.537 µM; in assay [14] it was 0.261 µM. Moreover, the EC50 in [15] was 0.253 µM.
Take `COc1ccc(-c2nn3c(-c4ccccc4OC)nnc3s2)cc1OC` [I, 6-(3,4-dimethoxyphenyl)-3-(2-methoxyphenyl)-[1,2,4]triazolo[3,4-b][1,3,4]thiadiazole]: the GI50 in assay [1] turned out to be 2.08 µM; in assay [2], 2 µM; in assay [5], 0.261 µM; in assay [7], 0.136 µM; in assay [8] it was 2 µM; in assay [9], 2 µM. In addition, the values for the GI50 in assay [11] and in assay [12] were 2 µM and 1.03 µM, respectively. Also, the concentration for a half-maximal effect (EC50) in assay [3] came out at 0.808 µM; in [4], 0.412 µM; in assay [6], 0.521 µM; in [10], 0.563 µM; in [13] it was 0.523 µM; in assay [14] it was 0.3 µM. For the same molecule, the EC50 in assay [15] stood at 0.349 µM.
`COc1ccc(-c2nn3c(-c4ccccc4Cl)nnc3s2)cc1OC` [F, 3-(2-Chlorophenyl)-6-(3,4-dimethoxyphenyl)-[1,2,4]triazolo[3,4-b][1,3,4]thiadiazole]: the GI50 in assay [1] is 2.73 µM; in assay [2], 8 µM; in assay [5] it was 4.03 µM; in assay [7], 1.07 µM; in [8], 9.04 µM; in assay [9], 7.92 µM. In addition, the GI50 in [11] and in assay [12] was 4 µM throughout. The EC50 in assay [3] was 5.31 µM; in assay [4], 5.32 µM; in assay [6], 5.27 µM; in assay [10] it was 2.69 µM; in assay [13] it was 5.16 µM; in [14], 4.46 µM. Further, the half-maximal effective concentration (EC50) in [15] was 5.3 µM.
